Source: patent publication US20260256794A1, “Oral Dynamine Formulations and Methods Therefor” (Ortho-Nutra, LLC, priority 2023, published 2026)

Key:
Assay type in all cases: in vivo, human
subjects [1] = assay: Trail Making Test; settings: for Trail Making Test score, Mean: lower = faster
Experimental: (§1) The inventors have discovered various compositions and methods of improving various indices of neurological and neuroenergetic functions by administering 100 mg (once daily) dosages of DYNAMINE™ (dosage between 1.0 and 1.4 mg/kg) as described in the following:
(§2) All neuroenergetic tests as listed below were performed and data were collected after 0 and 4 days of assigned supplements (with acute effects also measured at day 4 over 180 minutes):
Trail Making Test: Day 0: Two blocks of three tests were completed. Each block of three tests was separated by 10 minutes. The median of each block was taken and then those two scores were averaged. This value was used in all statistical analysis. Day 4: Three tests were completed at four time points: after 0, 60, 120, and 180 minutes of taking dose #4. The median of the three tests at each time point was used in all statistical analysis.
The trail making test has at least two test conditions. In Condition A, a subject is asked to draw lines to connect circled numbers in a numerical sequence (e.g., 1-2-3, etc.) as rapidly in possible. In Condition B the subject is asked to draw lines to connect circled numbers and letters in an alternating numeric and alphabetic sequence (i.e., 1-A-2-B, etc.) as rapidly as possible. Although trail making tests are conceptually very simple, they are thought to reflect a wide variety of cognitive processes including attention, visual search and scanning, sequencing and shifting, psychomotor speed, abstraction, flexibility, ability to execute and modify a plan of action, and ability to maintain two trains of thought simultaneously.

subjects [2] = assay: VAS-Mental Stamina; set-up: VAS-Mental Stamina rating, Mean / VAS-Mental Stamina changes from baseline, Mean Difference ± SE / VAS-Mental Stamina area under the curve, Mean Difference ± SE / VAS-Mental Stamina area under the curve, Mean: scale not given here
Experimental: as §1, §2
(§3) All VAS Measurement (Energy, Sustained Energy, Mental Stamina, Ability to Focus, Ability to Concentrate, Motivation to Accomplish Difficult Tasks, Drive, Vigor, Level of Positive Outlook, Mood, Feelings of Well-Being, Tolerate Stress); Day 0: Two tests were completed. The average of both scores was computed and this value was used in all statistical analysis. Day 4 (0 minutes after ingesting dose #4): Two tests were completed. The average of both scores was computed and this value was used in all statistical analysis. Day 4 (60, 120, and 180 minutes after ingesting dose #4): One test was completed at each time point.
(§4) Neuroenergic parameters are inherently subjective, nevertheless significant in human behavior and well-being. To allow for a standardization among different subjects, the following experiments were performed using a visual analog scale using anchor statements (lowest possible/highest possible) in which subjects were asked to rate their subjective experience with respect to the specific neuroenergic parameters tested.
VAS-Mental Stamina: In this subjective test, subjects were asked to rate their personal level of energy on a VAS scale using the prompt of “My level of mental stamina right now is . . . ” (with rating lowest possible to highest possible)”. Results were collected as noted above and Table 10 provides exemplary results for Day 0 versus Day 4 ratings, whereas Table 11 provides exemplary acute results measured at Day 4 over a duration of 180 minutes.

subjects [3] = assay: VAS-Mood; set-up: VAS-Mood rating, Mean / VAS-Mood changes from baseline, Mean Difference ± SE / VAS-Mood area under the curve, Mean Difference ± SE / VAS-Mood area under the curve, Mean: scale not given here
Experimental: as §1, §2, §3, §4
VAS-Mood: In this subjective test, subjects were asked to rate their personal level of energy on a VAS scale using the prompt of “My mood right now is . . . ” (with rating lowest possible to highest possible)”. Results were collected as noted above and Table 31 provides exemplary results for Day 0 versus Day 4 ratings, whereas Table 32 provides exemplary acute results measured at Day 4 over a duration of 180 minutes.

subjects [4] = assay: VAS-Energy; set-up: VAS-Energy rating, Mean / VAS-Energy changes from baseline, Mean Difference ± SE / VAS-Energy Δ, Mean Difference ± SE / VAS-Energy area under the curve, Mean Difference ± SE / VAS-Energy area under the curve, Mean: scale not given here; settings: for VAS-Energy Δ, effect size d / VAS-Energy Δ from 0 min, Mean / VAS-Energy Δ, Mean Difference ± SE: females; for VAS-Energy Δ, effect size d: vs placebo; for VAS-Energy Δ, Mean Difference ± SE: B vs A (placebo)
Experimental: as §1, §2, §3, §4
VAS-Energy: In this subjective test, subjects were asked to rate their personal level of energy on a VAS scale using the prompt of “My level of energy right now is . . . ” (with rating lowest possible to highest possible)”. Results were collected as noted above and Table 2 provides exemplary results for Day 0 versus Day 4 ratings, whereas Table 3 provides exemplary acute results measured at Day 4 over a duration of 180 minutes.

[5] = 100 mg once daily, Day 4, 0 min after dose #4
[6] = 100 mg once daily, Day 4, 60 min after dose #4
[7] = 100 mg once daily, Day 4, 120 min after dose #4
[8] = 100 mg once daily, Day 4, 180 min after dose #4
[9] = 100 mg once daily, Day 4, 0-180 min
[10] = 100 mg once daily, Day 4, 0-180 min, vs Group A (placebo)
[11] = 100 mg once daily, Day 4, 60 min-0 min, vs Group A (placebo)
[12] = 100 mg once daily, Day 4, 120 min-0 min, vs Group A (placebo)
[13] = 100 mg once daily, Day 4, 180 min-0 min, vs Group A (placebo)
[14] = 100 mg once daily, Day 4, Δ @ 60 min
[15] = 100 mg once daily, Day 4, Δ @ 120 min
[16] = 100 mg once daily, Day 4, Δ @ 180 min

In the case of `COc1nc2c(c(=O)n1C)n(C)c(=O)n2C` [methylliberine, 2-methoxy-1,7,9-trimethylpurine-6,8-dione], the “Trail Making Test score, Mean” value (subjects [1]; [5]) is reported as 21.6, the “Trail Making Test score, Mean” value (subjects [1]; [6]) is reported as 20.4 and the “Trail Making Test score, Mean” value (subjects [1]; [7]) is reported as 20.2. The “Trail Making Test score, Mean” value (subjects [1]; [8]) was 20.3, the “improvement in TMT performance” value (subjects [1]; 4-days daily supplementation, Day 4 vs Day 0, p<0.001) was “+11.1%” and the “Trail Making Test score, Mean” value (subjects [1]; Day 0 (before supplementation)) was 24.3. The “VAS-Mental Stamina area under the curve, Mean” value (subjects [2]; [9]) was 1133, the “VAS-Mental Stamina area under the curve, Mean Difference ± SE” value (subjects [2]; [10]) was 59.2 ± 46.2 and the “VAS-Mental Stamina area under the curve, effect size d” value (subjects [2]; [10]) was 0.18. The “VAS-Mental Stamina rating, Mean” value (subjects [2]; [5]) was 6.0, the “VAS-Mental Stamina changes from baseline, Mean Difference ± SE” value (subjects [2]; [11]) was −0.12 ± 0.22 and the “VAS-Mental Stamina changes from baseline, effect size d” value (subjects [2]; [11]) was −0.15. For the same compound, the “VAS-Mental Stamina rating, Mean” value (subjects [2]; [6]) was 6.3, the “VAS-Mental Stamina changes from baseline, Mean Difference ± SE” value (subjects [2]; [12]) was −0.21 ± 0.28 and the “VAS-Mental Stamina changes from baseline, effect size d” value (subjects [2]; [12]) was −0.21. The “VAS-Mental Stamina rating, Mean” value (subjects [2]; [7]) was 6.3, the “VAS-Mental Stamina changes from baseline, Mean Difference ± SE” value (subjects [2]; [13]) was 0.16 ± 0.24 and the “VAS-Mental Stamina changes from baseline, effect size d” value (subjects [2]; [13]) was 0.15. For the same compound, the “VAS-Mental Stamina rating, Mean” value (subjects [2]; [8]) was 6.6, the “VAS-Mental Stamina rating, Mean” value (subjects [2]; Day 0 (before supplementation)) was 5.7 and the “VAS-Mood area under the curve, Mean” value (subjects [3]; [9]) was 1220. The “VAS-Mood area under the curve, Mean Difference ± SE” value (subjects [3]; [10]) was 37.4 ± 250.7, the “VAS-Mood area under the curve, effect size d” value (subjects [3]; [10]) was 0.12 and the “VAS-Mood rating, Mean” value (subjects [3]; [5]) was 6.1. The “VAS-Mood changes from baseline, Mean Difference ± SE” value (subjects [3]; [11]) was 0.38 ± 0.18, the “VAS-Mood changes from baseline, effect size d” value (subjects [3]; [11]) was 0.43 and the “VAS-Mood rating, Mean” value (subjects [3]; [6]) was 6.7. For the same compound, the “VAS-Mood changes from baseline, Mean Difference ± SE” value (subjects [3]; [12]) was 0.45 ± 0.27, the “VAS-Mood changes from baseline, effect size d” value (subjects [3]; [12]) was 0.41 and the “VAS-Mood rating, Mean” value (subjects [3]; [7]) was 7.0. For the same compound, the “VAS-Mood changes from baseline, Mean Difference ± SE” value (subjects [3]; [13]) was 0.72 ± 0.30, the “VAS-Mood changes from baseline, effect size d” value (subjects [3]; [13]) was 0.65 and the “VAS-Mood rating, Mean” value (subjects [3]; [8]) was 7.1. For the same compound, the “VAS-Mood rating, Mean” value (subjects [3]; Day 0 (before supplementation)) was 6.5, the “VAS-Energy area under the curve, Mean” value (subjects [4]; [9]) was 1115 and the “VAS-Energy area under the curve, Mean Difference ± SE” value (subjects [4]; [10]) was 49.6 ± 36.3. For the same compound, the “VAS-Energy area under the curve, effect size d” value (subjects [4]; [10]) was 0.15, the “VAS-Energy rating, Mean” value (subjects [4]; [5]) was 5.8 and the “VAS-Energy changes from baseline, Mean Difference ± SE” value (subjects [4]; [11]) was 0.24 ± 0.22. The “VAS-Energy changes from baseline, effect size d” value (subjects [4]; [11]) was 0.28, the “VAS-Energy rating, Mean” value (subjects [4]; [6]) was 6.2 and the “VAS-Energy changes from baseline, Mean Difference ± SE” value (subjects [4]; [12]) was −0.14 ± 0.27. For the same compound, the “VAS-Energy changes from baseline, effect size d” value (subjects [4]; [12]) was −0.14, the “VAS-Energy rating, Mean” value (subjects [4]; [7]) was 6.2 and the “VAS-Energy changes from baseline, Mean Difference ± SE” value (subjects [4]; [13]) was 0.28 ± 1.24. For the same compound, the “VAS-Energy changes from baseline, effect size d” value (subjects [4]; [13]) was 0.28, the “VAS-Energy rating, Mean” value (subjects [4]; [8]) was 6.5 and the “VAS-Energy rating, Mean” value (subjects [4]; Day 0 (before supplementation)) was 5.5. The “VAS-Energy Δ, effect size d” value (subjects [4]; 100 mg once daily, Day 4, 60 min) was 0.81, the “VAS-Energy Δ, effect size d” value (subjects [4]; 100 mg once daily, Day 4, 120 min) was 0.69 and the “VAS-Energy Δ, effect size d” value (subjects [4]; 100 mg once daily, Day 4, 120 min, listed as B) was −0.03. For the same compound, the “VAS-Energy Δ, effect size d” value (subjects [4]; 100 mg once daily, Day 4, 180 min) was 0.69, the “VAS-Energy Δ from 0 min, Mean” value (subjects [4]; [14]) was 0.66 and the “VAS-Energy Δ, Mean Difference ± SE” value (subjects [4]; [14]) was 0.72 ± 0.23. The “VAS-Energy Δ from 0 min, Mean” value (subjects [4]; [15]) was 0.42, the “VAS-Energy Δ, Mean Difference ± SE” value (subjects [4]; [15]) was −0.03 ± 0.38 and the “VAS-Energy Δ from 0 min, Mean” value (subjects [4]; [16]) was 1.08. The “VAS-Energy Δ, Mean Difference ± SE” value (subjects [4]; [16]) was 0.73 ± 1.11.
